Experimental data as given in patent US20140135319A1, “6-SUBSTITUTED IMIDAZOPYRAZINES FOR USE AS MPS-1 AND TKK INHIBITORS IN THE TREATMENT OF HYPERPROLIFERATIVE DISORDERS” (BAYER INTELLECTUAL PROPERTY GMBH, priority 2010, published 2014).

Biological target: T1, human kinase Mps-1 (Homo sapiens, UniProt P33981)
T1 construct: N-terminally GST-tagged human full length recombinant Mps-1 kinase; GST (N); purchased Invitrogen, Karslruhe, Germany PV4071
T1 sequence (P33981 1-857): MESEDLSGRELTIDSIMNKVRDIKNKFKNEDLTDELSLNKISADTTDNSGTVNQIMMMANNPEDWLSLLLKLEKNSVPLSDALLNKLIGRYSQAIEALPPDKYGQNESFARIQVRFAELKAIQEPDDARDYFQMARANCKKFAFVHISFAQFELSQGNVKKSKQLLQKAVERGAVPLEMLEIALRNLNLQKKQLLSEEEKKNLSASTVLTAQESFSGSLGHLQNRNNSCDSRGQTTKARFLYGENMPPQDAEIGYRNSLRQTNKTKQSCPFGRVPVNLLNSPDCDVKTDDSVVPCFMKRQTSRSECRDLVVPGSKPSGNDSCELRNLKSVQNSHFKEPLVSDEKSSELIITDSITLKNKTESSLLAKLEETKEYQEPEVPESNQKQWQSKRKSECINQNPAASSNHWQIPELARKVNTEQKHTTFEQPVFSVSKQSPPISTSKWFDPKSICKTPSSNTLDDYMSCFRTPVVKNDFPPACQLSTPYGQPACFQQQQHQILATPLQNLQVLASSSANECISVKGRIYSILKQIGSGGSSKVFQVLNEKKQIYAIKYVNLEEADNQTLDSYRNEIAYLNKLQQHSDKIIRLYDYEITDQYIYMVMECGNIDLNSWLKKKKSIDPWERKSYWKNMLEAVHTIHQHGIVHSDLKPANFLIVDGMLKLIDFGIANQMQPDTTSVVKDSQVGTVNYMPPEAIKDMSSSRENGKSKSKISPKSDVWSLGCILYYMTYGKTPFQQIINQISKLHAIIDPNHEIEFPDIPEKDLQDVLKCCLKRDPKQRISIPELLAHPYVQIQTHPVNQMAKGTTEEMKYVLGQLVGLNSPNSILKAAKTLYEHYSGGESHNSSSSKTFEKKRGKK
Assay: Mps-1 kinase assay (TR-FRET)
Format: biochemical
Settings: GST-tagged human full length recombinant Mps-1; 10 μM ATP; 1 μM peptide substrate; 60 min at 22° C.
Summary of the method: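 TR-FRET read-out: after 1 h binding at 22° C, Eu-labelled anti-phospho-Ser/Thr antibody transfers to SA-XLent on the phosphorylated biotinylated peptide. The enzyme is GST-tagged full-length human Mps-1, typically about 1 nM final, in the linear range.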

Row | SMILES | IC50
1 | Cc1cc(-c2cnc3c(NCCC(F)(F)F)nc(C4=CCNCC4)cn23)ccc1C(=O)NC1CC1 [Example 1-76, N-cyclopropyl-2-methyl-4-{6-(1,2,3,6-tetrahydro-pyridin-4-yl)-8-[(3,3,3-trifluoropropyl)amino]imidazo[1,2-a]pyrazin-3-yl}benzamide] | 13 nM
2 | CC(C)CNc1nc(-c2ccc3c(ccn3C)c2)cn2c(-c3ccc(C(=O)NC4CC4)cc3)cnc12 [Example 1-6, N-cyclopropyl-4-{6-(1-methyl-1H-indol-5-yl)-8-[(2-methylpropyl)amino]imidazo[1,2-a]pyrazin-3-yl}benzamide] | 6.8 nM
3 | Cc1cc(-c2cnc3c(NCCC(F)(F)F)nc(-c4ccoc4)cn23)ccc1C(=O)NC1CC1 [Example 1-71, N-cyclopropyl-4-{6-(furan-3-yl)-8-[(3,3,3-tri-fluoropropyl)amino]imidazo[1,2-a]pyrazin-3-yl}-2-methylbenzamide] | 3.9 nM
4 | CC(C)(O)CNc1nc(-c2ccncc2)cn2c(-c3ccc(C(=O)NC4CC4)c(Cl)c3)cnc12 [Example 1-40, 2-chloro-N-cyclopropyl-4-{8-[(2-hydroxy-2-methylpropyl)amino]-6-(pyridin-4-yl)imidazo [1,2-a]pyrazin-3-yl} benzamide] | 57.7 nM
5 | Cn1nccc1CNc1nc(-c2ccn[nH]2)cn2c(-c3ccc(C(=O)NC4CC4)c(Cl)c3)cnc12 [Example 1-48, 2-chloro-N-cyclopropyl-4-[8-{[(1-methyl-1H-pyrazol-5-yl)methyl]amino}-6-(1H-pyrazol-5-yl)imidazo[1,2-a]pyrazin-3-yl]benzamide] | 42.3 nM
6 | Cc1ccc(-c2cn3c(-c4ccc(C(=O)NC5CC5)cc4)cnc3c(NCC(C)(C)O)n2)cc1CC(N)=O [Example 1-99, 4-{6-[3-(2-Amino-2-oxo-ethyl)-4-methylphenyl]-8-[(2-hydroxy-2-methylpropyl)amino]imidazo[1,2-a]pyrazin-3-yl}-N-cyclopropylbenzamide] | 16.1 nM
7 | Cc1ccc2sc(-c3cn4c(-c5ccc(C(=O)NC6CC6)cc5)cnc4c(NCC(C)C)n3)cc2c1 [Example 1-16, N-cyclopropyl-4-{6-(5-methyl-1-benzothiophen-2-yl)-8-[(2-methylpropyl)amino]imidazo[1,2-a]pyrazin-3-yl}benzamide] | 104 nM
8 | CC(C)(O)CNc1nc(-c2cccc(CC(N)=O)c2)cn2c(-c3ccc(C(=O)NC4CC4)cc3)cnc12 [Example 1-91, 4-{6-[3-(2-Amino-2-oxo-ethyl)phenyl]-8-[(2-hydroxy-2-methylpropyl)amino]imidazo[1,2-a]pyrazin-3-yl}-N-cyclopropylbenzamide] | 4 nM
9 | Cc1ccc(-c2cn3c(-c4ccc(C(=O)NC5CC5)cc4)cnc3c(NCC(C)C)n2)cn1 [Example 1-20, N-cyclopropyl-4-{8-[(2-methylpropyl)amino]-6-(6-methylpyridin-3-yl)imidazo[1,2-a]pyrazin-3-yl}benzamide] | 2.9 nM
10 | Cc1cc(-c2cnc3c(NCCC(F)(F)F)nc(-c4cnn(C)c4)cn23)ccc1C(=O)NC1CC1 [Example 1-69, N-cyclopropyl-2-methyl-4-{6-(1-methyl-1H-pyrazol-4-yl)-8-[(3,3,3-trifluoropropyl)amino]imidazo[1,2-a]pyrazin-3-yl}benzamide] | 3.8 nM
11 | CC(C)(O)CNc1nc(-c2ccn[nH]2)cn2c(-c3ccc(C(=O)NC4CC4)c(F)c3)cnc12 [Example 1-59, N-cyclopropyl-2-fluoro-4-{8-[(2-hydroxy-2-methylpropyl)amino]-6-(1H-pyrazol-5-yl)imidazo [1,2-a]pyrazin-3-yl} benzamide] | 101 nM

Second part, the molecule after the results:

Row | IC50 | SMILES
12 | 29.9 nM | Cc1cc(-c2cnc3c(NCC4CNC(=O)C4)nc(C4=CCOCC4)cn23)ccc1C(=O)NC1CC1 (stereo not drawn) [Example 6-13, N-cyclopropyl-4-[6-(3,6-dihydro-2H-pyran-4-yl)-8-{[(5-oxopyrrolidin-3-yl)methyl]amino}imidazo [1,2-a]pyrazin-3-yl]-2-methylbenzamide]
13 | 77.6 nM | Cc1cc(-c2cnc3c(NCC4CCN(C)C4)nc(C4=CCOCC4)cn23)ccc1C(=O)NC1CC1 (stereo not drawn) [Example 6-9, N-cyclopropyl-4-[6-(3,6-dihydro-2H-pyran-4-yl)-8-{[(1-methyl-pyrrolidin-3-yl)methyl]amino}imidazo[1,2-a]pyrazin-3-yl]-2-methylbenzamide]
14 | 3.6 nM | C=CCNc1nc(-c2ccccc2)cn2c(-c3ccc(C(=O)NC4CC4)cc3)cnc12 [Example 3-39, 4-[8-(Allylamino)-6-phenylimidazo[1,2-a]pyrazin-3-yl]-N-cyclopropylbenzamide]
15 | 14.2 nM | C=CCOC(=O)CCCNc1nc(-c2ccccc2)cn2c(-c3ccc(C(=O)NC4CC4)cc3)cnc12 [Example 3-44, Allyl 4-({3-[4-(cyclopropylcarbamoyl)phenyl]-6-phenylimidazo[1,2-a]pyrazin-8-yl}amino)butanoate]
16 | 294 nM | Cc1cc(-c2cnc3c(NCC4CN(C)CCO4)nc(C4=CCOCC4)cn23)ccc1C(=O)NC1CC1 (stereo not drawn) [Example 6-7, N-cyclopropyl-4-[6-(3,6-dihydro-2H-pyran-4-yl)-8-{[(4-methyl-morpholin-2-yl)methyl]amino}imidazo[1,2-a]pyrazin-3-y1]-2-methylbenzamide]
17 | 1.2 nM | Cc1cc(-c2cnc3c(NCCC(F)(F)F)nc(CNc4ccccc4)cn23)ccc1C(=O)NC1CC1 [Example 11-2, N-cyclopropyl-2-methyl-4-{6-[(phenylamino)methyl]-8-[(3,3,3-trifluoropropyl)amino]imidazo[1,2-a]pyrazin-3-yl}benzamide]
18 | 5.6 nM | Cn1cc(CNc2nc(-c3ccncc3)cn3c(-c4ccc(C(=O)NC5CC5)cc4)cnc23)cn1 [Example 3-29, N-cyclopropyl-4-[8-{[(1-methyl-1H-pyrazol-4-yl)methyl]amino}-6-(pyridin-4-yl)imidazo [1,2-a]pyrazin-3-yl] benzamide]
19 | 2.1 nM | CCCNc1nc(-c2ccncc2)cn2c(-c3ccc(C(=O)NC4CC4)cc3)cnc12 [Example 3-3, N-cyclopropyl-4-[8-(propylamino)-6-(pyridin-4-yl)imidazo[1,2-a]pyrazin-3-yl]benzamide]
20 | < 1 nM | Cc1cc(-c2cnc3c(NCC(C)(C)O)nc(Sc4ccccc4)cn23)ccc1C(=O)NC1CC1 [Example 15-1, N-cyclopropyl-4-{8-[(2-hydroxy-2-methylpropyl)amino]-6-(phenylsulfanyl)imidazo[1,2-a]pyrazin-3-yl}-2-methylbenzamide]
21 | 5.4 nM | O=C(NC1CC1)c1ccc(-c2cnc3c(NCC(F)F)nc(-c4ccncc4)cn23)cc1 [Example 3-26, N-cyclopropyl-4-{8-[(2,2-difluoroethyl)amino]-6-(pyridin-4-yl)imidazo [1,2-a]pyrazin-3-yl} benzamide]
22 | 21.5 nM | CS(=O)(=O)CCCNc1nc(-c2ccncc2)cn2c(-c3ccc(C(=O)NC4CC4)cc3)cnc12 [Example 3-32, N-cyclopropyl-4-[8-{[3-(methylsulfonyl)propyl]amino}-6-(pyridin-4-yl)imidazo[1,2-a]pyrazin-3-yl]benzamide]
23 | 17.8 nM | O=C(NC1CC1)c1ccc(-c2cnc3c(NCCOCCOCCO)nc(-c4ccccc4)cn23)cc1 [Example 3-43, N-cyclopropyl-4-[8-({2-[2-(2-hydroxyethoxy)ethoxy]ethyl}amino)-6-phenylimidazo[1,2-a]pyrazin-3-yl]benzamide]
24 | 214 nM | O=C(NC1CC1)c1ccc(-c2cnc3c(NCCCN4CCOCC4)nc(-c4ccncc4)cn23)cc1 [Example 3-5, N-cyclopropyl-4-[8-{[3-(morpholin-4-yl)propyl]amino}-6-(pyridin-4-yl)imidazo[1,2-a]pyrazin-3-yl]benzamide]
25 | 1.7 nM | Cc1cc(-c2cnc3c(NCC(C)(C)O)nc(Oc4cccc(F)c4)cn23)ccc1C(=O)NC1CC1 [Example 13-5, N-cyclopropyl-4-{6-(3-fluorophenoxy)-8-[(2-hydroxy-2-methylpropyl)amino]imidazo[1,2-a]pyrazin-3-yl}-2-methyl benzamide]
26 | 6 nM | Cc1cc(-c2cnc3c(NCC4CCOC4)nc(C4=CCOCC4)cn23)ccc1C(=O)NC1CC1 (stereo not drawn) [Example 6-11, N-cyclopropyl-4-{6-(3,6-dihydro-2H-pyran-4-yl)-8-[(tetrahydrofuran-3-ylmethyl)amino]imidazo[1,2-a]pyrazin-3-yl}-2-methylbenzamide]
27 | 6.5 nM | Cc1cc(-c2cnc3c(NCCC(F)(F)F)nc(C4=CCOCC4)cn23)ccc1C(=O)NC1CC1 [Example 6-2, N-cyclopropyl-4-{6-(3,6-dihydro-2H-pyran-4-yl)-8-[(3,3,3-trifluoro-propyl)amino]imidazo[1,2-a]pyrazin-3-yl}-2-methylbenzamide]
